Data published in publication PMC6283615, “Anilinoquinoline based inhibitors of trypanosomatid proliferation” (PLoS Neglected Tropical Diseases, 2018).
In brackets after ≈: the same amount, converted by molar mass.

Key:
[1] = Human liver microsome intrinsic clearance; type: in vitro ADME
[2] = system: NIH/3T3 cells; experiment: Drug toxicity to 3T3 cells (Alamar Blue, 96 h); type: cell-based
Procedure: In a 96-well plate, 5×10^4 NIH/3T3 (ATCC CRL-1658) cells (purchased from ATCC) in DMEM without phenol red supplemented with 2% FBS were added to each well. Cells were incubated for 2 h to allow for attachment. Compounds were added in triplicates at 200 μM and in serial dilutions 1:2 and incubated at 37°C, 5% CO2 for 96 h. […] Following incubation, 10 μL of Alamar Blue (ThermoFisher) were added to each well and cells incubated at 37°C, 5% CO2 for 4 h. Absorbance was read at 590–595 nm.

[3] = system: HepG2 cells; experiment: Drug toxicity to HepG2 cells (MTT, 48 h); type: cell-based, human; conditions: tested concentration ranges based on compound solubility
Procedure: HepG2 cells were cultured in complete Minimal Essential Medium prepared by supplementing MEM with 0.19% sodium bicarbonate, 10% heat inactivated FBS, 2 mM L-glutamine, 0.1 mM MEM non-essential amino, 0.009 mg/mL insulin, 1.76 mg/mL bovine serum albumin, 20 units/mL penicillin–streptomycin, and 0.05 mg/mL gentamycin. HepG2 cells cultured in complete MEM were first washed with 1× Hank’s Balanced Salt Solution (Invitrogen #14175095), trypsinized using a 0.25% trypsin/EDTA solution, assessed for viability using trypan blue, and resuspended at 250,000 cells/mL. Using a Tecan EVO Freedom robot, 38.3 μL of cell suspension were added to each well of clear, cell culture-treated 384-well microtiter plates for a final concentration of 9570 liver cells per well, and plated cells were incubated overnight in 5% CO2 at 37°C. Drug plates were prepared with the Tecan EVO Freedom using sterile 96 well plates containing twelve duplicate 1.6-fold serial dilutions of each test compound suspended in DMSO. 4.25 μL of diluted test compound was then added to the 38.3 μL of media in each well providing a […] final dilution of compound. Compounds were tested from a range of 57 ng/mL to 10,000 ng/mL for all assays. Mefloquine was used as a plate control for all assays with a concentration ranging from 113 ng/mL to 20,000 ng/mL. After a 48 h incubation period, 8 μL of a 1.5 mg/mL solution of MTT diluted in complete MEM media was added to each well. All plates were subsequently incubated in the dark for 1 h at room temperature. After incubation, the media and drugs in each well was removed by shaking the plate over sink, and the plates were left to dry in a fume hood for 15 mins. Next, 30 μL of isopropanol acidified by addition of HCl at a final concentration of 0.36% was added to dissolve the formazan dye crystals created by reduction of MTT. Plates are put on a 3-D rotator for 15–30 mins. Absorbance was determined in all wells using a Tecan iControl 1.6 Infinite plate reader.

[4] = system: T. cruzi amastigote (Tulahuen strain expressing β-galactosidase); experiment: Intracellular T. cruzi assay in 3T3 cells (beta-galactosidase, 96 h); type: cell-based, Trypanosoma cruzi; conditions: intracellular in 3T3 cells, 96 h; read-out: T. cruzi amastigote EC50
Procedure: In a 96-well plate, 5×10^4 3T3 cells in DMEM without phenol red supplemented with 2% FBS were added to each well. Cells were incubated for 2 h to allow for attachment. Compounds were added in triplicates at 50 μM and in serial dilutions 1:2. To each well, 5×10^4 T. cruzi trypomastigotes (Tulahuen strain expressing β-galactosidase) were added and incubated at 37°C, 5% CO2 for 96 h. Following incubation, 50 μL of 500 μM chlorophenol Red-β-D-galactopyranoside (CPRG) in phosphate-buffered saline with 0.5% NP40 was added to each well and incubated at 37°C, 5% CO2 for 4 h. Absorbance was read at 590–595 nm.

[5] = Human plasma protein binding; type: in vitro ADME
[6] = target: L. major amastigote; experiment: L. major intracellular amastigote luciferase assay in RAW 264.7 macrophages; type: cell-based, Leishmania major; conditions: intracellular amastigotes in RAW 264.7 macrophages, 96 h
Procedure: Amastigote assays were performed using pLEXSY-hyg2-luciferase L. major transfected promastigotes and the murine RAW 264.7 macrophage cell line (ATCC TIB-71, Manassas, VA). Briefly, luciferase-expressing promastigotes of each Leishmania species were generated by adding a luciferase encoding region to the pLEXSY-hyg2 vector (Jena Biosciences, Germany) as described. One μg of the linearized pLEXSY-hyg2-luciferase vector were electroporated (480 V, 13 Ω, and 500 μF) into 4×10^7 Leishmania promastigotes. Selection for stable promastigote transfectants was carried out using hygromycin B (100 μg/mL). RAW 264.7 macrophages were maintained in growth medium (Dulbecco’s Modified Eagle’s Medium supplemented with heat-inactivated 10% FBS (Life Technologies)). Cells were harvested and resuspended in growth medium at 2.0×10^5 cells/mL, and 1×10^4 cells/well were dispensed (final volume 50 μL) in each well of a 384 well tissue-culture treated white plate using a EVO Freedom liquid handling system (Tecan, Durham, NC). Plates were incubated at 37°C in 5% CO2 for 24 h after which the culture medium was removed from each well using the EVO Freedom liquid handler. Metacyclic phase pLEXSY-hyg2-luciferase-Leishmania promastigotes (MOI = 1:10 L. major) were added to each assay plate well and allowed to infect the RAW 264.7 macrophages. After an overnight incubation, the growth medium was aspirated and each well was washed three times with 40 μL of fresh growth medium to remove non-internalized promastigotes. After the third wash, 69.2 μL of growth medium was added to each well. Compound dilutions (final concentration ranges 0.5–10,000 ng/mL) were generated and dispensed using the liquid handling system. Compound treated plates were incubated at 37°C in 5% CO2 for 96 h. After incubation, 7.5 μL of a luciferin solution (Caliper Life Science, Waltham, MA) diluted to 150 μg/mL was added to each well, and the plates were incubated for 30 min at 37°C in the dark. Data were captured using an Infinite M200 plate reader (Tecan). EC50s were generated for each concentration response test using GraphPad Prism software 6.0.

[7] = LogD7.4; type: physicochemical; conditions: pH 7.4
[8] = Aqueous solubility; type: physicochemical
[9] = Rat hepatocyte intrinsic clearance; type: in vitro ADME
[10] = system: T. b. brucei (strain 427); experiment: T. b. brucei proliferation assay (PrestoBlue, 48 h); type: cell-based, Trypanosoma brucei brucei
Procedure: The assay was performed following a previously reported procedure. Briefly, in a 96-well plate, compounds were added in triplicates at 50 μM and in serial dilutions 1:2 in HMI-9 medium. To each well, 100 μL of 2.5×10^3 T. b. brucei (strain 427, received as a gift from Dr. C. C. Wang at UCSF) in HMI-9 medium was were added and incubated at 37°C, 5% CO2 for 48 h. Following incubation, 20 μL of PrestoBlue were added to each well and incubated for additional 4 h. Fluorescence was read at 530 nm excitation and 590 nm emission.

| SMILES | Human Liver Microsome CLint [1] | 3T3 TC50 [2] | HepG2 TC50 [3] | EC50 [4] | Human PPB [5] | EC50 [6] | LogD7.4 [7] | solubility [8] | Rat Hepatocyte CLint [9] | EC50 [10] |
| --- | --- | --- | --- | --- | --- | --- | --- | --- | --- | --- |
| Cc1cnc(Nc2ccc3c(Nc4cnccn4)ccnc3c2)s1 [NEU-2149] | 54 µL/min/mg | > 50 µM | 5 µM | > 50 µM | 96% | 5.3 µM | 3.7 | 1 µM (≈ 0.334 µg/mL) | > 300 μL/min/10^6 cells | 2.3 µM |
| c1cnc(Nc2ccnc3cc(Nc4nccnn4)ccc23)cn1 [NEU-2145] | 42 µL/min/mg | > 50 µM | 11 µM | > 50 µM | 75% | 28 µM | 2.1 | 3 µM (≈ 0.949 µg/mL) | > 300 μL/min/10^6 cells | 4.7 µM |
| Cn1nccc1Nc1ccc2c(Nc3cnccn3)ccnc2c1 [NEU-2144] | 10 µL/min/mg | > 50 µM | 35 µM | > 50 µM | 69% | 28 µM | 2.4 | 100 µM (≈ 31.7 µg/mL) | 16 μL/min/10^6 cells | 14 µM |
| Cc1nn(C)c(C)c1Nc1ccc2c(Nc3cnccn3)ccnc2c1 [NEU-2142] | 13 µL/min/mg | > 100 µM | 39 µM | > 50 µM | 59% | 26 µM | 2 | 570 µM (≈ 197 µg/mL) | 32 μL/min/10^6 cells | 23 µM |
| COc1ccc(Nc2ccnc3cc(-c4ccc(C)o4)ccc23)cc1Cl [NEU-2134] | > 300 µL/min/mg | > 100 µM | 42 µM | 1.2 µM | > 99% | 27 µM | 4.8 | 0.1 µM (≈ 0.0365 µg/mL) | 193 μL/min/10^6 cells | > 20 µM |
| Cn1cc(-c2ccc3c(Nc4cnccn4)ccnc3c2)cn1 [NEU-2129] | 25 µL/min/mg | 37 µM | 40 µM | 2.4 µM | – | 33 µM | 2.9 | 4 µM (≈ 1.21 µg/mL) | 290 μL/min/10^6 cells | 3.3 µM |
| Cc1cc(Nc2ccc3c(Nc4cnccn4)ccnc3c2)sn1 [NEU-2148] | 28 µL/min/mg | > 100 µM | 36 µM | > 50 µM | – | 4.7 µM | 3.5 | 2 µM (≈ 0.669 µg/mL) | 9 μL/min/10^6 cells | 7.6 µM |
| c1coc(-c2ccc3c(Nc4cnccn4)ccnc3c2)c1 [NEU-2131] | 160 µL/min/mg | > 100 µM | 53 µM | 4.7 µM | 98% | 35 µM | 3.8 | 6 µM (≈ 1.73 µg/mL) | – | 4.8 µM |
| Cc1n[nH]c(C)c1Nc1ccc2c(Nc3cnccn3)ccnc2c1 [NEU-2146] | 8 µL/min/mg | > 100 µM | 40 µM | > 50 µM | 68% | 27 µM | 1.8 | – | 120 μL/min/10^6 cells | 17 µM |
| COc1ccc(Nc2ccnc3cc(Nc4ccnc(N5CCN(C)CC5)n4)ccc23)cc1Cl [NEU-2093] | 45 µL/min/mg | 15 µM | 4.7 µM | 8.1 µM | – | 4.6 µM | – | – | 2.3 μL/min/10^6 cells | 0.34 µM |
| Cn1cc(Nc2ccc3c(Nc4cnccn4)ccnc3c2)cn1 [NEU-2143] | 10 µL/min/mg | > 50 µM | 29 µM | > 50 µM | 63% | 28 µM | 1.9 | – | 66 μL/min/10^6 cells | 14 µM |
